Laboratory results: US7078540B1, “Substituted aromatic-ring compounds, process for producing the same, and use” (Takeda Pharmaceutical Company Limited, priority 1999, dated 2006)

Legend:
[1] = tested on: NO production by RAW264.7 cells; test: Inhibitory activity on NO production in LPS/interferon-γ stimulated RAW264.7 cells; assay type: cell-based, mouse; conditions: LPS 5 ng/ml + interferon-γ 1 U/ml, overnight, nitrite in culture supernatant
Description: Using mouse macrophage cell line, RAW264.7 as iNOS inducible cells, percent inhibition of NO production by the test compound was measured. The test compound was dissolved in N,N-dimethylformamide to 10 mM and diluted with RPMI-1640 medium to 0.1 mM. Furthermore, it was prepared with a medium to make a final concentration from 10 μM to 10 nM by diluting 10-fold, and added to the culture. The day before the experiment, the cells were prepared with RPMI-1640 medium supplemented with heat-inactivated 10% fetal calf serum to a concentration of 5×10^5 cells/ml and plated to a 96-well plate by 1×10^5 cells/0.2 ml per well. After culturing at 37° C. under 5% CO2/95% air overnight, the medium was changed to RPMI-1640 medium supplemented with heat-inactivated 1% fetal calf serum. Thereto was added the prepared test compound, and LPS and interferon-γ were added to a final concentrations of 5 ng/ml and 1 U/ml, respectively. After incubation overnight, the concentration of nitrite ion (stable metabolite of NO) in the culture supernatant was measured and used as an index of NO production. The nitrite concentration was quantitatively measured by adding 20 μg/ml 2,3-diaminonaphtalene (DAN) by 25 μl to the culture supernatant (50 μl), incubating at room temperature for 10 min, adding 0.5N NaOH (25 μl) and measuring the fluorescence at 450 nm (excitation wavelength 365 nm).

[2] = tested on: IL-1β production by human monocyte cell line P31/FUJ; test: Inhibitory activity on IL-1β production in P31/FUJ cells; assay type: cell-based; conditions: PMA pretreated, LPS 100 ng/ml + interferon-γ 10 U/ml, overnight
Description: (§1) Using human monocyte cell line P31/FUJ (JCRB0091, establisher: Fujioka, obtained from the Human Science Research Resource Bank), the percent inhibition of cytokine production by the test compound was measured. The test compound was dissolved in N,N-dimethylformamide to 10 mM and diluted with RPMI-1640 medium to 0.1 mM. Furthermore, it was prepared with a medium to make a final concentration from 10 μM to 10 nM by diluting 10-fold, and added to the culture. The day before the experiment, the cells were prepared with RPMI-1640 medium supplemented with 10% fetal calf serum to a concentration of 2×10^6 cells/ml and plated to a 96-well plate by 2×10^5 cells/0.1 ml per well. The above-mentioned medium (0.1 ml) supplemented with 40 nM phorbol 12-myristate 13-acetate (PMA) was added and the mixture was cultured at 37° C. under 5% CO2/95% air overnight. The cells were washed with the above-mentioned medium to remove PMA and the prepared test compound was added, and LPS and interferon-γ were added to a final concentrations of 100 ng/ml and 10 U/ml, respectively. After culturing overnight, the concentration of TNF-α and IL-1β in the culture supernatant was measured. For quantitative determination of each cytokine, a quantitative determination kit by Amersham was used.

[3] = tested on: blood NOx concentration; test: Effect against increase in blood nitrogen oxide concentration in LPS-treated mice; assay type: in vivo, mouse; conditions: female BALB/c mice, 10 mg/kg orally 1 h before LPS 10 mg/kg i.p., sera at 6 h after LPS, relative to control group
Description: When a biological defense response against infection and the like, immunopathy and the like causes NO production in the body, it is quickly metabolized into nitrous acid and nitric acid, whereby blood nitrogen oxide concentration (NOx) increases. Using test animals, the effect of the test compound against increase in blood NOx concentration was examined.
Female BALB/c mice (7-week-old) were divided into 6–8 mice per group. For the test compound group, the test compound was suspended in 0.5% aqueous methylcellulose solution and 10 mg/kg thereof was orally administered. For the control group, a solvent was similarly administered. One hour later, LPS (10 mg/kg) was intraperitoneally administered to the test compound group and the control group. At 6 h after LPS administration, blood was drawn and nitrate ion+nitrite ion concentration in sera was measured. The nitrate ion was converted to nitrous acid ion with nitrate reductase and quantitatively measured as a total nitrite ion concentration by fluorescence method using the aforementioned DAN.

[4] = tested on: TNF-α production by human monocyte cell line P31/FUJ; test: Inhibitory activity on TNF-α production in P31/FUJ cells; assay type: cell-based; conditions: PMA pretreated, LPS 100 ng/ml + interferon-γ 10 U/ml, overnight
Description: as §1

[5] = Mus musculus, RAW264.7, RAW264.7 cells

Row | IC50 [1, 5] [nM] | IC50 ([1]; RAW264.7 cells) [nM] | SMILES | also measured
1 | 240 |  | CCOC(=O)C1=CCCCC1S(=O)(=O)Cc1ccccc1 (stereo not shown) [Compound 1, ethyl 6-(benzylsulfonyl)-1-cyclohexene-1-carboxylate] | 
2 | 3200 |  | CCOC(=O)C1=CCCCC1S(=O)(=O)Cc1ccc(OC)cc1 (stereo not shown) [Compound 2, ethyl 6-[(4-methoxybenzyl)sulfonyl]-1-cyclohexene-1-carboxylate] | 
3 | 47 |  | CCOC(=O)C1=CCCCC1S(=O)(=O)Cc1ccc(F)cc1F (stereo not shown) [Compound 3, ethyl 6-[(2,4-difluorobenzyl)sulfonyl]-1-cyclohexene-1-carboxylate] | 
4 |  | 29 | CCOC(=O)C1=CCCCC1S(=O)(=O)Cc1ccc(F)cc1Cl (stereo not shown) [Compound 4, ethyl 6-[(2-chloro-4-fluorobenzyl)-sulfonyl]-1-cyclohexene-1-carboxylate] | IC50 [2]: 580 nM; Blood NOx inhibition (%) [3]: 62%; IC50 ([4]; Homo sapiens, P31-FUJ): 200 nM
5 |  | 1000 | CCOC(=O)C1=CCCCC1S(=O)(=O)Cc1ccc(F)cc1Cl (stereo not drawn) [Compound 5, ethyl (−)-6-[(2-chloro-4-fluorobenzyl)sulfonyl]-1-cyclohexene-1-carboxylate] | 
6 |  | 9.3 | CCOC(=O)C1=CCCCC1S(=O)(=O)Cc1ccc(F)cc1Cl (stereo not drawn) [Compound 6, ethyl (+)-6-[(2-chloro-4-fluorobenzyl)sulfonyl]-1-cyclohexene-1-carboxylate] | IC50 [2]: 230 nM; IC50 [4]: 150 nM
7 | 18 |  | CCOC(=O)C1=CCOCC1S(=O)(=O)Nc1ccc(F)cc1F (stereo not shown) [Compound 7, ethyl 3-[(2,4-difluorophenyl)-sulfamoyl]-3,6-dihydro-2H-pyran-4-carboxylate] | 
8 | 3.1 |  | CCOC(=O)C1=CCOCC1S(=O)(=O)Nc1ccc(F)cc1Cl (stereo not shown) [Compound 8, ethyl 3-[(2-chloro-4-fluorophenyl)sulfamoyl]-3,6-dihydro-2H-pyran-4-carboxylate] | IC50 ([2]; Homo sapiens, P31-FUJ): 11 nM; Blood NOx inhibition (%) [3]: 80%; IC50 ([4]; Homo sapiens, P31-FUJ): 20 nM
